Key:
293T cells = experiment: Global myristoylation level, western blot; format: cell-based
Protocol: (§1) Protein samples were separated by SDS/PAGE and transferred to the PVDF membrane. The membrane was blocked with 5% BSA in TBST (25 mM Tris, pH 7.4, 150 mM NaCl, 0.1% Tween‐20), incubated with primary antibodies and secondary antibodies in TBST, and then treated with ECL Plus western blotting detection reagents (Bio‐rad). The chemiluminescence signal was analyzed by ChemiDoc imaging system (Bio‐rad).
(§2) HMEC‐1, obtained from Shanghai Zhong Qiao Xin Zhou Biotechnology, was cultured in MCDB131 medium containing 10% foetal bovine serum (FBS) and 1% antibiotics (penicillin and streptomycin) in 5% CO2 incubator at 37 °C. HUVEC, obtained from Shanghai Zhong Qiao Xin Zhou Biotechnology, were cultured in ECM medium containing 5% FBS, 1% antibiotics (penicillin and streptomycin) and 1% endothelial cell growth supplement (ECGS) in 5% CO2 incubator at 37 °C. HEK 293T were obtained from ATCC, and cultured in Dulbecco's modified Eagle's medium (DM EM) containing 10% FBS and 1% antibiotics (penicillin and streptomycin) in 5% CO2 incubator at 37 °C. The SIRT6 KO 293T cells were constructed by Hanbio Biotechnology, the SIRT6 gRNA was 5′‐[…]‐3′. SIRT6 overexpression and knockdown recombinant lentivirus were constructed by Hanbio Biotechnology, the vector pGLV3‐harboring SIRT6 and SIRT6 shRNA (5′‐[…]‐3′) were used for lentivirus packaging. […]

ATF2 in 293T = experiment: ATF2 protein level, western blot; format: cell-based; conditions: 0–20 µg mL^−1, 12 h, n = 3
Protocol: as §1, §2

[1] = system: FLAG-tagged ATF2 in 293T cells; experiment: ATF2 myristoylation, IP and Click-iT; format: cell-based; conditions: 10 µg mL^−1, 12 h, n = 3
Protocol: (§3) HMEC‐1, obtained from Shanghai Zhong Qiao Xin Zhou Biotechnology, was cultured in MCDB131 medium containing 10% foetal bovine serum (FBS) and 1% antibiotics (penicillin and streptomycin) in 5% CO2 incubator at 37 °C. HUVEC, obtained from Shanghai Zhong Qiao Xin Zhou Biotechnology, were cultured in ECM medium containing 5% FBS, 1% antibiotics (penicillin and streptomycin) and 1% endothelial cell growth supplement (ECGS) in 5% CO2 incubator at 37 °C. HEK 293T were obtained from ATCC, and cultured in Dulbecco's modified Eagle's medium (DM EM) containing 10% FBS and 1% antibiotics (penicillin and streptomycin) in 5% CO2 incubator at 37 °C. The SIRT6 KO 293T cells were constructed by Hanbio Biotechnology, the SIRT6 gRNA was 5′‐[…]‐3′. SIRT6 overexpression and knockdown recombinant lentivirus were constructed by Hanbio Biotechnology, the vector pGLV3‐harboring SIRT6 and SIRT6 shRNA (5′‐[…]‐3′) were used for lentivirus packaging. The plasmid ATF2WT, ATF2K296R, GFP‐ATF2WT and GFP‐ATF2K296R were synthesized by Hanbio Biotechnology, and the plasmid pUC57‐SIRT6 and all primers were synthesized by Tsingke Biotechnology.
Click chemistry was used for the detection of K296 myristoylation of exogenous ATF2. The click chemistry‐based labeling and detection technology was conducted according to the manufacturer's instructions (Click‐iT Protein Reaction Buffer Kit Invitrogen C10276).

FLAG‐ATF2 in 293T cells = experiment: Nuclear localization of FLAG-ATF2, 293T; format: cell-based; conditions: 10 µg mL^−1, 12 h, n = 3
Protocol: as §1, §2

[2] = system: ATF2 in SIRT6 KD HMEC cells; experiment: Nuclear localization of ATF2, HMEC; format: cell-based; conditions: 10 µg mL^−1, 12 h, n = 3; not the K296R mutant
Protocol: as §1, §2

[3] = system: endogenous ATF2 in HUVECs; experiment: Nuclear localization of endogenous ATF2, HUVEC; format: cell-based; conditions: 10 µg mL^−1, 12 h, n = 3
Protocol: as §1, §2

[4] = system: VE‐Cadherin and PRKCD in HMEC-1; experiment: VE-Cadherin and PRKCD expression, western blot, HMEC-1; format: cell-based; conditions: 10 µg mL^−1, 12 h, n = 3
Protocol: as §1, §2

HMEC-1 [5] = experiment: Transendothelial permeability (transwell, FITC-dextran); format: cell-based; conditions: 10 µg mL^−1, 12 h; FITC‐dextran 6µg mL^−1, 2 h or 6h, n = 3
Protocol: as §2
HMEC‐1 transfected with relative plasmids were pretreated with ALK14(10 µg mL^−1) for 12 h and were grown on 0.4 µm‐pore transwell filters (Millipore, Bedford, MA) until confluent. […] Fluorescence of media in the lower chamber was detected at 485/530 nm by afluorescence microplate reader (FL × 800, BIO‐TEK Instruments).

HMEC-1 [6] = experiment: Intercellular gap formation, VE-Cadherin immunofluorescence; format: cell-based; conditions: 10 µg mL^−1, 12 h, n = 8–10; prevented by K296R
Protocol: as §3

HMEC-1 [7] = experiment: Endothelial-stromal differentiation (CD31 and αSMA western blot); format: cell-based; conditions: 10 ug/ml, 12h, n=3
Protocol: as §1, §2

[8] = system: ATF2 localization and PRKCD/VE‐cadherin axis in HUVECs; experiment: ALK14 versus myristic acid, ATF2 localization and PRKCD/VE-cadherin axis; format: cell-based; conditions: each 10 μg/ml, 12 hours
Protocol: as §1, §2

SIRT6 = SIRT6 activator, ref [57]; cited from earlier work
Excerpt: Table 1 The activators of SIRT6 were represented with structure, EC50, category, company, indications, and reference. | column: EC50

| SMILES | global myristoylation level, dose dependence (293T cells; 0–10 µg mL^−1, 12 hours) | global myristoylation level, ALK14-treated versus untreated (293T cells; SIRT6 WT and KO cells, 10 μg/ml) | ATF2 protein level (ATF2 in 293T) | ATF2 myristoylation level [1] | nuclear FLAG‐ATF2 accumulation (FLAG‐ATF2 in 293T cells) | nuclear accumulation of wild‐type ATF2 [2] | ATF2 translocation [3] | PRKCD expression [4] | VE‐cadherin expression [4] | endothelial permeability, ATF2 K296R cells (HMEC-1 [5]) | endothelial permeability, ATF2 WT cells (HMEC-1 [5]) | intercellular gap formation (5 µm/10 µm), ATF2 WT (HMEC-1 [6]) | effect on endothelial‐stromal differentiation (HMEC-1 [7]) | impact on ATF2 localization and PRKCD/VE‐cadherin axis, myristic acid versus ALK14 [8] | EC50 (SIRT6) [µM] |
| --- | --- | --- | --- | --- | --- | --- | --- | --- | --- | --- | --- | --- | --- | --- | --- |
| C#CCCCCCCCCCCCC(=O)O [ALK14, Alkynyl myristic acid] | dose‐dependent increases | significantly elevated global myristoylation levels | remained stable | significant myristoylation enhancement | significantly reduced nuclear FLAG‐ATF2 accumulation | reduced nuclear accumulation of wild‐type ATF2 | translocation of endogenous ATF2 from nucleus to cytoplasm | PRKCD reduction | significantly reduced VE‐cadherin expression | absent in K296R mutants | ALK14‐induced permeability in ATF2 WT cells | ALK14‐induced gap formation | Neither ALK14 nor ATF2 modification influenced endothelial‐stromal differentiation | equivalent impacts |  |
